# Experimental data as given in patent publication US20250051344A1, “BIFUNCTIONAL SELECTIVE DEGRADERS OF SMARCA2 AND THERAPEUTIC USES THEREOF” (Nurix Therapeutics, Inc., priority 2023, published 2025).
# What was measured:
# SMARCA4 = molecular target: T1, SMARCA4 (Homo sapiens, UniProt P51532); assay: Cellular degradation assay, SMARCA4 (Table 1); type: cell-based
# T1 construct: endogenous in cells
# SMARCA2 = molecular target: T2, SMARCA2 (Homo sapiens, UniProt P51531); assay: SMARCA2 Cellular Degradation Assay (Western blot analysis on Jess platform); type: cell-based; conditions: for DC50 / Dmax: cellular degradation; for Fold Selectivity SMARCA4/2: ratio DC50 SMARCA4 / DC50 SMARCA2
# T2 construct: endogenous in cells
# Summary of the method: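 Percent SMARCA2 remaining relative to vehicle was derived from capillary Western peak areas, each normalized to β-actin after capillary background subtraction. Samples were tumor-derived cell lysates, 5 μg total protein loaded, heated at 95° C. for 5 minutes before the Jess run.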
# T2 sequence (P51531 whole entry, species assumed): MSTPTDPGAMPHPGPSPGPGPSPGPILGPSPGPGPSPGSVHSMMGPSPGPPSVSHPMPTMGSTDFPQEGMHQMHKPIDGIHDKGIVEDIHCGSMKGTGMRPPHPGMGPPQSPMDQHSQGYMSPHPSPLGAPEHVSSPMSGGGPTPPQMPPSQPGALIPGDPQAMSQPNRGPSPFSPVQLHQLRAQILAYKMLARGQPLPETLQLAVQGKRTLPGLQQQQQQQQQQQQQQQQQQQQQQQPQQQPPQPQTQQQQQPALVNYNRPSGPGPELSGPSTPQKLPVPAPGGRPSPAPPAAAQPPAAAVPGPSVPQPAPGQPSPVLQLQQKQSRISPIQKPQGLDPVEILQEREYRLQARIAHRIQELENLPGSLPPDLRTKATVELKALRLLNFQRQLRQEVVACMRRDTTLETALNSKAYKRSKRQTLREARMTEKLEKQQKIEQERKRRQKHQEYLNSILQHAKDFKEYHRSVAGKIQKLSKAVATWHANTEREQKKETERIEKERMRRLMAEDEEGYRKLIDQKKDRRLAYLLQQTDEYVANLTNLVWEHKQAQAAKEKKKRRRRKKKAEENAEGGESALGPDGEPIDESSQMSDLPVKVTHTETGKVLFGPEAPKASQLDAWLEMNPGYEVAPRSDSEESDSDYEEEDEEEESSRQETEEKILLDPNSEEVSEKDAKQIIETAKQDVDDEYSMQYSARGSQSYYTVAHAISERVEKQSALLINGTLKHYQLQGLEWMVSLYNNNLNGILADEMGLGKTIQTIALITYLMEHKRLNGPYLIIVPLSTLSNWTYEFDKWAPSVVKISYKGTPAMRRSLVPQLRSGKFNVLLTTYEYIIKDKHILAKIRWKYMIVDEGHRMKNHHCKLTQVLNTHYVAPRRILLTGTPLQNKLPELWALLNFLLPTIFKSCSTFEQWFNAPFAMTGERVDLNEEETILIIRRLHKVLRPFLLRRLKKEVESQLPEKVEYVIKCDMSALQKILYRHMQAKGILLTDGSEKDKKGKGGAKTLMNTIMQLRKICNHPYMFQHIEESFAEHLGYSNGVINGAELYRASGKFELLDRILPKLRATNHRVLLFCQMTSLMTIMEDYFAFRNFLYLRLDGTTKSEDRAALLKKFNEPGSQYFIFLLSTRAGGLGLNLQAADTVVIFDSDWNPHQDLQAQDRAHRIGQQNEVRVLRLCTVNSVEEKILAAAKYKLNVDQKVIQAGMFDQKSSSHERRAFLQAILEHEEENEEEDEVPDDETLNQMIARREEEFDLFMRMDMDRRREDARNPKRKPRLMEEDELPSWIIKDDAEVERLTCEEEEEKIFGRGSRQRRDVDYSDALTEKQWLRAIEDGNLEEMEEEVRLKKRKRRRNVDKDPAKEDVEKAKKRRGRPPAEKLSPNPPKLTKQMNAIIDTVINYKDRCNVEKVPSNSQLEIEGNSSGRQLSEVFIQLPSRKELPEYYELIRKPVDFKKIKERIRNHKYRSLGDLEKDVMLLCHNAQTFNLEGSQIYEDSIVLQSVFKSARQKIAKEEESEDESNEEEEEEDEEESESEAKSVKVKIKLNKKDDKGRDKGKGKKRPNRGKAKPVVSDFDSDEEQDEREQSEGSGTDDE
# T1 sequence (P51532 whole entry, species assumed): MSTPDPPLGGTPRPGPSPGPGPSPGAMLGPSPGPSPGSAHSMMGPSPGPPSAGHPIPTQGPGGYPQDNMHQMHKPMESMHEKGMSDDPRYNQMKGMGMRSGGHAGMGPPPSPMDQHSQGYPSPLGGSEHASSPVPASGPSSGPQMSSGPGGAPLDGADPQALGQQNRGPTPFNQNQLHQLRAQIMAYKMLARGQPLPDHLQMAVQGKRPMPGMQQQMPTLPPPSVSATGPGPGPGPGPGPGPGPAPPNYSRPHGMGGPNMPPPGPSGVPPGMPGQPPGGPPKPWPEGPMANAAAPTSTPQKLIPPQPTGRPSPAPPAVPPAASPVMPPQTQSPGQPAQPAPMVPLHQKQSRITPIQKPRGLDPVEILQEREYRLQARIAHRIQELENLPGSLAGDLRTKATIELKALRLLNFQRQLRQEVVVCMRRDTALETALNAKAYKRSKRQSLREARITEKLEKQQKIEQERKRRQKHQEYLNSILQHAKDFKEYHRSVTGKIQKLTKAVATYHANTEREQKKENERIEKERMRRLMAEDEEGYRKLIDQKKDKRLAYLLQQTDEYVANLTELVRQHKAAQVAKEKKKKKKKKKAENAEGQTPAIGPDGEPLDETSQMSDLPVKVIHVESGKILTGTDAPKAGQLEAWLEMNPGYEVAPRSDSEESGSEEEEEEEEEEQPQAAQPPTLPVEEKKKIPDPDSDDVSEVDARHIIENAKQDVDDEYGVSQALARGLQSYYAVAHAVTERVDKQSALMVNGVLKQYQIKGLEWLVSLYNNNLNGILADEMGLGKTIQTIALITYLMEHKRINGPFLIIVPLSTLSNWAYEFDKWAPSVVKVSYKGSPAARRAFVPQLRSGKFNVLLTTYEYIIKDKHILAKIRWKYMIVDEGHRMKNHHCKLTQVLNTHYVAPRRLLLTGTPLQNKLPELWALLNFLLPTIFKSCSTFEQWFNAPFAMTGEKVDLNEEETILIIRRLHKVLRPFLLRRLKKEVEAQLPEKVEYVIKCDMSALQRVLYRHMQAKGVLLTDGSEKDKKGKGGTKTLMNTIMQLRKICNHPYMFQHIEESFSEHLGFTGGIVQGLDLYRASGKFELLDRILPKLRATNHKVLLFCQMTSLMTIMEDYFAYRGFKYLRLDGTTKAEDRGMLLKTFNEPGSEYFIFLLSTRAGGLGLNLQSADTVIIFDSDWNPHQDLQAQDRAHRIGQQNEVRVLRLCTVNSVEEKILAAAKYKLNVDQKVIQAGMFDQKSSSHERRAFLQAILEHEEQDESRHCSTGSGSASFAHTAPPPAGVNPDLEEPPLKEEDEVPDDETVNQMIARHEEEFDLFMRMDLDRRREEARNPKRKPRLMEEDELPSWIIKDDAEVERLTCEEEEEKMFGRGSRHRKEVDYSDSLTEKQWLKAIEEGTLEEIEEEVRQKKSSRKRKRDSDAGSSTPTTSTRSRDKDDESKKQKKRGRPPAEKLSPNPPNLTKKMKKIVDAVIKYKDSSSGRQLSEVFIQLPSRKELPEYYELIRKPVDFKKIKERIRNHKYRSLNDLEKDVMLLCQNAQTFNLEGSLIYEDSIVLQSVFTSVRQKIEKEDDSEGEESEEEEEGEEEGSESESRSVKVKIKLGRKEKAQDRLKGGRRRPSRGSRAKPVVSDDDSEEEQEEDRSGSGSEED
SMILES,Dmax (SMARCA4) [%],DC50 (SMARCA2) [nM],Dmax (SMARCA2) [%],Fold Selectivity SMARCA4/2 (SMARCA2),DC50 (SMARCA4) [nM]
"O=C1CCC(c2ccc(N3CCN(C(=O)C4CC45CCN(C(=O)C4(c6ccccc6)CCN(c6cnnc(-c7ccccc7O)c6)CC4)C5)CC3)cc2)C(=O)N1 (racemic) [Example 29, rac-(3R)-3-{4-[4-(5-{1-[6-(2-hydroxyphenyl)pyridazin-4-yl]-4-phenylpiperidine-4-carbonyl}-5-azaspiro[2.4]heptane-1-carbonyl)piperazin-1-yl]phenyl}piperidine-2,6-dione]",0.46,,5.79,1,
"O=C1CC[C@H](c2ccc(OCC3CCN(CC4CCN(C(=O)C5(c6ccccc6)CCN(c6cnnc(-c7ccccc7O)c6)CC5)CC4)CC3)cc2)C(=O)N1 [Example 36, (3R)-3-[4-({1-[(1-{1-[6-(2-hydroxyphenyl)pyridazin-4-yl]-4-phenylpiperidine-4-carbonyl}piperidin-4-yl)methyl]piperidin-4-yl}methoxy)phenyl]piperidine-2,6-dione]",27.4,32.3,63.9,309.98,
"O=C1CC[C@H](c2ccc(N3CCC(CCN4CCC[C@@H]4C(=O)NCC4(c5ccccc5)CCN(c5cnnc(-c6ccccc6O)c5)CC4)CC3)cc2)C(=O)N1 (racemic) [Example 107, (r)-1-(2-(1-(4-((rs)-2,6-dioxopiperidin-3-yl)phenyl)piperidin-4-yl)ethyl)-n-((1-(6-(2-hydroxyphenyl)pyridazin-4-yl)-4-phenylpiperidin-4-yl)methyl)pyrrolidine-2-carboxamide]",29.4,41.3,58.8,242,
"O=C1CC[C@H](c2ccc(N3CCC(CN4CCCC5C4CCCN5C(=O)C4(c5ccccc5)CCN(c5cnnc(-c6ccccc6O)c5)CC4)CC3)cc2)C(=O)N1 (stereo partly drawn) [Example 41, (3R)-3-(4-{4-[(5-{1-[6-(2-hydroxyphenyl)pyridazin-4-yl]-4-phenylpiperidine-4-carbonyl}-decahydro-1,5-naphthyridin-1-yl)methyl]piperidin-1-yl}phenyl)piperidine-2,6-dione]",41,,36.8,1,
"O=C1CC[C@H](c2ccc(N3CCC(CN4CCC5CN(C(=O)C6(c7ccccc7)CCN(c7cnnc(-c8ccccc8O)c7)CC6)C5C4)CC3)cc2)C(=O)N1 (stereo partly drawn) [Example 51, (3R)-3-(4-{4-[(8-{1-[6-(2-hydroxyphenyl)pyridazin-4-yl]-4-phenylpiperidine-4-carbonyl}-3,8-diazabicyclo[4.2.0]octan-3-yl)methyl]piperidin-1-yl}phenyl)piperidine-2,6-dione]",0.85,,26.7,1,
"CN(C(=O)C1(OC2CCCCC2)CCN(c2cnnc(-c3ccccc3O)c2)CC1)C1CCN(C(=O)CN2CCC(c3ccc([C@@H]4CCC(=O)NC4=O)cc3)CC2)CC1 (racemic) [Example 117, rac-4-(cyclohexyloxy)-n-(1-(2-(4-(4-(2,6-dioxopiperidin-3-yl)phenyl)piperidin-1-yl)acetyl)piperidin-4-yl)-1-(6-(2-hydroxyphenyl)pyridazin-4-yl)-n-methylpiperidine-4-carboxamide]",62.4,16.7,82.1,9,153
"O=C1CCC(c2ccc(OCC3CCN(C(=O)C4(c5ccccc5)CCN(c5cnnc(-c6ccccc6O)c5)CC4)CC3)cc2)C(=O)N1 (racemic) [Example 5, rac-(3R)-3-{4-[(1-{1-[6-(2-hydroxyphenyl)pyridazin-4-yl]-4-phenylpiperidine-4-carbonyl}piperidin-4-yl)methoxy]phenyl}piperidine-2,6-dione]",22.6,463,59.8,21.62,
"O=C1CC[C@@H](c2ccc(N3CCC(CN4CCCC(CNC(=O)C5(c6ccccc6)CCN(c6cnnc(-c7ccccc7O)c6)CC5)C4)CC3)cc2)C(=O)N1 (stereo partly drawn) [Example 10, N-({1-[(1-{4-[(3S)-2,6-dioxopiperidin-3-yl]phenyl}piperidin-4-yl)methyl]piperidin-3-yl}methyl)-1-[6-(2-hydroxyphenyl)pyridazin-4-yl]-4-phenylpiperidine-4-carboxamide]",25.6,80.1,59.3,124.82,
"O=C1CCC(c2ccc(N3C[C@@H]4CN(CC5CCN(C(=O)C6(c7ccccc7)CCN(c7cnnc(-c8ccccc8O)c7)CC6)CC5)C[C@H]4C3)cc2)C(=O)N1 (mixture of isomers) [Example 160, (3RS)-3-{4-[(3aS,6aS)-5-[(1-{1-[6-(2-hydroxyphenyl)pyridazin-4-yl]-4-phenylpiperidine-4-carbonyl}piperidin-4-yl)methyl]-octahydropyrrolo[3,4-c]pyrrol-2-yl]phenyl}piperidine-2,6-dione]",71.4,12,87.7,9,104

# Second part, the molecule after the results:
Dmax (SMARCA4) [%],DC50 (SMARCA2) [nM],Dmax (SMARCA2) [%],Fold Selectivity SMARCA4/2 (SMARCA2),DC50 (SMARCA4) [nM],SMILES
37.4,5.1,85.8,1961,,"Cc1ccnn1C1(C(=O)N(C)C2CCN(CCC3CCN(c4ccc([C@H]5CCC(=O)NC5=O)cc4)CC3)CC2)CCN(c2cnnc(-c3ccccc3O)c2)CC1 (racemic) [Example 78, rac-N-{1-[2-(1-{4-[(3R)-2,6-dioxopiperidin-3-yl]phenyl}piperidin-4-yl)ethyl]piperidin-4-yl}-1-[6-(2-hydroxyphenyl)pyridazin-4-yl]-N-methyl-4-(5-methyl-1H-pyrazol-1-yl)piperidine-4-carboxamide]"
55.4,3.33,89.2,27,88.6,"Cc1ccnn1C1(C(=O)N(C)C2CCN(CCC3CCN(c4ccc(C5CCC(=O)NC5=O)c(F)c4)CC3)CC2)CCN(c2cnnc(-c3ccccc3O)c2)CC1 (racemic) [Example 65, rac-N-{1-[2-(1-{4-[(3R)-2,6-dioxopiperidin-3-yl]-3-fluorophenyl}piperidin-4-yl)ethyl]piperidin-4-yl}-1-[6-(2-hydroxyphenyl)pyridazin-4-yl]-n-methyl-4-(5-methyl-1H-pyrazol-1-yl)piperidine-4-carboxamide]"
21,11,79.8,910,,"O=C1CC[C@@H](c2ccc(C3CCN(CC(=O)N4C[C@@H]5[C@H](C4)[C@H]5C(=O)NCC4(c5ccccc5)CCN(c5cnnc(-c6ccccc6O)c5)CC4)CC3)cc2)C(=O)N1 (racemic) [Example 73, (1R,5S,6S)-3-[2-(4-{4-[(3RS)-2,6-dioxopiperidin-3-yl]phenyl}piperidin-1-yl)acetyl]-N-({1-[6-(2-hydroxyphenyl)pyridazin-4-yl]-4-phenylpiperidin-4-yl}methyl)-3-azabicyclo[3.1.0]hexane-6-carboxamide]"
34.8,9.13,73.6,1095,,"O=C1CCC(c2ccc(N3CCC(F)(CCN4CC5(C4)CN(C(=O)C4(c6ccccc6)CCN(c6cnnc(-c7ccccc7O)c6)CC4)C5)CC3)cc2)C(=O)N1 (racemic) [Example 122, rac-(3R)-3-(4-{4-fluoro-4-[2-(6-{1-[6-(2-hydroxyphenyl)pyridazin-4-yl]-4-phenylpiperidine-4-carbonyl}-2,6-diazaspiro[3.3]heptan-2-yl)ethyl]piperidin-1-yl}phenyl)piperidine-2,6-dione]"
73.1,4.98,92.2,12,57.5,"O=C1CC[C@H](c2ccc(N3CCC(CCN4CCC(OCC(F)(F)F)(C(=O)NCC5(c6ccccc6)CCN(c6cnnc(-c7ccccc7O)c6)CC5)CC4)CC3)cc2)C(=O)N1 (racemic) [Example 105, rac-(r)-1-(2-(1-(4-(2,6-dioxopiperidin-3-yl)phenyl)piperidin-4-yl)ethyl)-n-((1-(6-(2-hydroxyphenyl)pyridazin-4-yl)-4-phenylpiperidin-4-yl)methyl)-4-(2,2,2-trifluoroethoxy)piperidine-4-carboxamide]"
62,6.28,86.6,17,104,"COc1cccc(C2(C(=O)NC3CCN(CC4CCN(c5ccc([C@H]6CCC(=O)NC6=O)cc5)CC4)C4(CCC4)C3)CCN(c3cnnc(-c4ccccc4O)c3)CC2)c1 (stereo partly drawn) [Example 169, N-{5-[(1-{4-[(3R)-2,6-dioxopiperidin-3-yl]phenyl}piperidin-4-yl)methyl]-5-azaspiro[3.5]nonan-8-yl}-1-[6-(2-hydroxyphenyl)pyridazin-4-yl]-4-(3-methoxyphenyl)piperidine-4-carboxamide]"
56.8,6.7,80.5,8.74,58.6,"Cn1ccc(C2(C(=O)N3CC4(CN(CC5CCN(c6ccc(C7CCC(=O)NC7=O)cc6)CC5)C4)C3)CCN(c3cnnc(-c4ccccc4O)c3)CC2)n1 (racemic) [Example 54, rac-(R)-3-(4-(4-((6-(1-(6-(2-hydroxyphenyl)pyridazin-4-yl)-4-(1-methyl-1H-pyrazol-3-yl)piperidine-4-carbonyl)-2,6-diazaspiro[3.3]heptan-2-yl)methyl)piperidin-1-yl)phenyl)piperidine-2,6-dione]"
80.7,1.36,93.7,10,13.4,"O=C1CC[C@H](c2ccc(N3CCC(CCN4CC5CCC(C4)C5C(=O)NCC4(c5ccccc5)CCN(c5cnnc(-c6ccccc6O)c5)CC4)CC3)cc2)C(=O)N1 (mixture of isomers) [Example 144, rac-3-(2-(1-(4-((r)-2,6-dioxopiperidin-3-yl)phenyl)piperidin-4-yl)ethyl)-n-((1-(6-(2-hydroxyphenyl)pyridazin-4-yl)-4-phenylpiperidin-4-yl)methyl)-3-azabicyclo[3.2.1]octane-8-carboxamide]"
